Where a name gives a salt, the structure may show the parent alone.
Target: human Factor XIa (Homo sapiens (Human), UniProt P03951)
Assay: Factor XIa enzyme inhibition assay (chromogenic substrate S-2366)
Format: biochemical
Settings: purified human Factor XIa, substrate S-2366, pH 7.4
Description: The results of this assay are expressed as the inhibitory constant, Ki.
Values of Ki were determined by allowing the protease to react with the substrate in the presence of the inhibitor. Reactions were allowed to go for periods of 20-180 minutes (depending on the protease) and the velocities (rate of absorbance or fluorescence change versus time) were measured. The following relationships were used to calculate Ki values:
vs/vo=A+((B−A)/1+((IC50/(I)n))); and […]

human Factor XIa, sequence (P03951 whole entry, looked up): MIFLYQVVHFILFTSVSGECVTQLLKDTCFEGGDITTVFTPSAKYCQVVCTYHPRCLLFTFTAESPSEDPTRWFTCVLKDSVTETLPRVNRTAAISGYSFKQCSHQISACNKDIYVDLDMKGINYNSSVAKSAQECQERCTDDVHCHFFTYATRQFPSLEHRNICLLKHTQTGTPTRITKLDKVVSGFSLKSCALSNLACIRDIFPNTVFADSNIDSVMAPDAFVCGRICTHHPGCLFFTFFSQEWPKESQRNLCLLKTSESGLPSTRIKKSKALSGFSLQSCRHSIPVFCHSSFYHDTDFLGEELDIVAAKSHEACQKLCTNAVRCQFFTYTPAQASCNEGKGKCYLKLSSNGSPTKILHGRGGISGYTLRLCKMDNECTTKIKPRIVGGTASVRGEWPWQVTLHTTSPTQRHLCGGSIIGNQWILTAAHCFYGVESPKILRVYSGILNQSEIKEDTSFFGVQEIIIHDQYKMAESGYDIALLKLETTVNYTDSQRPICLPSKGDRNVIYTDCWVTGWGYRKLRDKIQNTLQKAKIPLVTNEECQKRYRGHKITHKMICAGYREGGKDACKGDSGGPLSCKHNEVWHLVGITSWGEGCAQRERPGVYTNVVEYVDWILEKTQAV
human Factor XIa, sequence (P03951 whole entry partner, looked up): as the sequence (P03951 whole entry, looked up) above

Compound | Ki [nM]
CC[C@H](C)NC(=O)C1c2cccc(-c3ccc(C(=O)NC)cc3)c2CCN1C(=O)/C=C/c1c(-n2cnnn2)ccc(Cl)c1F (stereo partly drawn) [Example 65] | 49.2
CN(C)CCNC(=O)c1ccc(-c2cccc3c2CCN(C(=O)/C=C/c2c(-n4cnnn4)ccc(Cl)c2F)C3C(=O)Nc2ccc(C(=O)OC(C)(C)C)cc2)cc1 (stereo not drawn) [Example 89] | < 5
O=C(O)c1ccc(NC(=O)C2c3cccc(C(=O)N4CCNCC4)c3CCN2C(=O)/C=C/c2c(-n3cnnn3)ccc(Cl)c2F)cc1 (stereo not drawn) [Example 29] | 553
Cn1nccc1-c1cccc2c1CCN(C(=O)/C=C/c1c(-n3cnnn3)ccc(Cl)c1F)C2C(=O)Nc1ccc(C(=O)O)cc1 (stereo not drawn) [Example 173, (E)-4-(2-(3-(3-Chloro-2-fluoro-6-(1H-tetrazol-1-yl)phenyl)acryloyl)-5-(1-methyl-1H-pyrazol-5-yl)-1,2,3,4-tetrahydroisoquinoline-1-carboxamido)benzoic acid] | < 5
CNC(=O)c1ccc(-c2cccc3c2CCN(C(=O)/C=C/c2c(-n4cnnn4)ccc(Cl)c2F)C3C(=O)Nc2ccc3c(c2)CN=N3)cc1 (stereo not drawn) [Example 80] | 20.1
COC(=O)Nc1ccc(-c2cccc3c2CCN(C(=O)/C=C/c2c(-n4cnnn4)ccc(Cl)c2F)[C@H]3C(=O)Nc2ccc(F)cc2)cc1 [Example 50, (R,E)-Methyl 4-(2-(3-(3-chloro-2-fluoro-6-(1H-tetrazol-1-yl)phenyl)acryloyl)-1-(4-fluorophenylcarbamoyl)-1,2,3,4-tetrahydroisoquinolin-5-yl)phenylcarbamate] | 3370
CCOC(=O)c1ccc(NC(=O)C2c3cccc(-c4ccc(C(=O)NC)nc4)c3CCN2C(=O)/C=C/c2c(-n3cnnn3)ccc(Cl)c2F)cc1 (stereo not drawn) [Example 188] | 3860
CC(=O)c1ccc(Cl)c(F)c1/C=C/C(=O)N1CCc2c(-c3ccc(C(=O)NCCN(C)C)cc3)cccc2[C@@H]1C(=O)Nc1ccc(C(=O)O)cc1 [Example 150, (R,E)-4-(2-(3-(6-Acetyl-3-chloro-2-fluorophenyl)acryloyl)-5-(4-(2-(dimethylamino)ethylcarbamoyl)phenyl)-1,2,3,4-tetrahydroisoquinoline-1-carboxamido)benzoic acid, TFA salt] | 37
O=C(O)c1ccc(NC(=O)C2c3cccc(OC4CCNCC4)c3CCN2C(=O)/C=C/c2c(-n3cnnn3)ccc(Cl)c2F)cc1 (stereo not drawn) [Example 108, (E)-4-(2-(3-(3-Chloro-2-fluoro-6-(1H-tetrazol-1-yl)phenyl)acryloyl)-5-(piperidin-4-yloxy)-1,2,3,4-tetrahydroisoquinoline-1-carboxamido)benzoic acid, TFA salt] | < 5
CC(=O)c1ccc(Cl)c(F)c1/C=C/C(=O)N1CCc2c(-c3ccc(C(N)=O)cc3)cccc2[C@@H]1C(=O)Nc1ccc(C(=O)O)cc1 [Example 120] | 291
CS(=O)(=O)Nc1cccc2c1CCN(C(=O)/C=C/c1c(-n3cnnn3)ccc(Cl)c1F)C2C(=O)Nc1ccc(C(=O)O)cc1 (stereo not drawn) [Example 9, (E)-4-(2-(3-(3-chloro-2-fluoro-6-(1H-tetrazol-1-yl)phenyl)acryloyl)-5-(methylsulfonamido)-1,2,3,4-tetrahydroisoquinoline-1-carboxamido)benzoic acid] | < 5
CCOC(=O)[C@H]1CCCN(C(=O)c2cccc3c2CCN(C(=O)/C=C/c2c(-n4cnnn4)ccc(Cl)c2F)C3C(=O)Nc2ccc(NC(=O)OC)cc2)C1 (stereo partly drawn) [Example 16] | 332
CC(C)(C)OC(=O)c1ccc(NC(=O)C2c3cccc(C(=O)N4CCN(C(=O)OC(C)(C)C)CC4)c3CCN2C(=O)/C=C/c2c(-n3cnnn3)ccc(Cl)c2F)cc1 (stereo not drawn) [Example 24] | 170
CN(C)CCOc1cccc2c1CCN(C(=O)/C=C/c1c(-n3cnnn3)ccc(Cl)c1F)C2C(=O)Nc1ccc(C(=O)O)cc1 (stereo not drawn) [Example 132, (E)-4-(2-(3-(3-chloro-2-fluoro-6-(1H-tetrazol-1-yl)phenyl)acryloyl)-5-(2-(dimethylamino)ethoxy)-1,2,3,4-tetrahydroisoquinoline-1-carboxamido)benzoic acid, TFA salt] | < 5
CN(C)CCNC(=O)c1ccc(-c2cccc3c2CCN(C(=O)/C=C/c2c(-n4cnnn4)ccc(Cl)c2F)[C@H]3C(=O)Nc2ccc(C(=O)OCc3ccccn3)cc2)cc1 [Example 98] | 132
COc1ccc(-c2cccc3c2CCN(C(=O)/C=C/c2c(-n4cnnn4)ccc(Cl)c2F)C3C(=O)Nc2ccc(C(=O)O)cc2)c(Cl)c1 (stereo not drawn) [Example 47, (E)-4-(2-(3-(3-chloro-2-fluoro-6-(1H-tetrazol-1-yl)phenyl)acryloyl)-5-(2-chloro-4-methoxyphenyl)-1,2,3,4-tetrahydroisoquinoline-1-carboxamido)benzoic acid] | < 5
CCOC(=O)c1ccc(NC(=O)C2c3cccc(OCCC4CCN(C)CC4)c3CC(C)(C)N2C(=O)/C=C/c2c(-n3cnnn3)ccc(Cl)c2F)cc1 (stereo not drawn) [Example 152, (E)-ethyl 4-(2-(3-(3-chloro-2-fluoro-6-(1H-tetrazol-1-yl)phenyl)acryloyl)-3,3-dimethyl-5-(2-(1-methylpiperidin-4-yl)ethoxy)-1,2,3,4-tetrahydroisoquinoline-1-carboxamido)benzoate, TFA salt] | 100
CN(C)CCNC(=O)c1ccc(-c2cccc3c2CCN(C(=O)/C=C/c2c(-n4cnnn4)ccc(Cl)c2F)[C@H]3C(=O)Nc2ccc(C(=O)OCCN(C)C)cc2)cc1 [Example 93, (R,E)-2-(dimethylamino)ethyl 4-(2-(3-(3-chloro-2-fluoro-6-(1H-tetrazol-1-yl)phenyl)acryloyl)-5-(4-((2-(dimethylamino)ethyl)carbamoyl)phenyl)-1,2,3,4-tetrahydroisoquinoline-1-carboxamido)benzoate; bis-TFA salt] | 951
CC(=O)c1ccc(Cl)c(F)c1/C=C/C(=O)N1CCc2c(O)cccc2C1C(=O)Nc1ccc(C(=O)O)cc1 (stereo not drawn) [Example 146, (E)-4-(2-(3-(6-acetyl-3-chloro-2-fluorophenyl)acryloyl)-5-hydroxy-1,2,3,4-tetrahydroisoquinoline-1-carboxamido)benzoic acid] | 24.8
COCCNC(=O)c1cccc2c1CCN(C(=O)/C=C/c1cc(Cl)ccc1-n1cnnn1)C2C(=O)Nc1ccc(C(=O)O)cc1 (stereo not drawn) [Example 3, (E)-4-(2-(3-(5-Chloro-2-(1H-tetrazol-1-yl)phenyl)acryloyl)-5-(2-methoxyethylcarbamoyl)-1,2,3,4-tetrahydroisoquinoline-1-carboxamido)benzoic acid] | 21.3
CNC(=O)c1ccc(-c2cccc3c2CCN(C(=O)/C=C/c2c(-n4cnnn4)ccc(Cl)c2F)C3C(=O)NCC(=O)OC)cc1 (stereo not drawn) [Example 61] | 342
CCOC(=O)c1ccc(NC(=O)[C@H]2c3cccc(OCCC4CCNCC4)c3CCN2C(=O)/C=C/c2c(-n3cnnn3)ccc(Cl)c2F)cc1 [Example 160, (R,E)-ethyl 4-(2-(3-(3-chloro-2-fluoro-6-(1H-tetrazol-1-yl)phenyl)-acryloyl)-5-(2-(piperidin-4-yl)ethoxy)-1,2,3,4-tetrahydroisoquinoline-1-carboxamido)benzoate, TFA salt] | 3530
O=C(O)c1ccc(NC(=O)C2c3cccc(C(=O)N4CCNCC4)c3CCN2C(=O)/C=C/c2c(-n3cnnn3)ccc(Cl)c2F)cc1 (stereo not drawn) [Example 30] | < 5
CNC(=O)c1ccc(-c2cccc3c2CCN(C(=O)/C=C/c2c(-n4cnnn4)ccc(Cl)c2F)C3C(=O)NCc2nccn2C)cc1 (stereo not drawn) [Example 66] | 534
CN(C)c1ccc(-c2cccc3c2CCN(C(=O)/C=C/c2c(-n4cnnn4)ccc(Cl)c2F)C3C(=O)Nc2ccc(C(=O)O)cc2)cn1 (stereo not drawn) [Example 191] | < 5
CNC(=O)c1ccc(-c2cccc3c2CCN(C(=O)/C=C/c2c(-n4cnnn4)ccc(Cl)c2F)C3C(=O)Nc2ccc(C(=O)O)cc2)cn1 (stereo not drawn) [Example 78] | < 5
CCOC(=O)CCCNC(=O)c1cccc2c1CCN(C(=O)/C=C/c1c(-n3cnnn3)ccc(Cl)c1F)C2C(=O)Nc1ccc(F)cc1 (stereo not drawn) [Example 14] | 580

From patent US9079929B2, “Substituted tetrahydroisoquinoline compounds as factor XIa inhibitors” (priority 2011, dated 2015)
